The values below are quoted from earlier work in US4127536A, “Novel tricosapeptides, intermediates therefor and pharmaceutical compositions and methods employing said tricosapeptides” (priority 1977, dated 1978).

Data set [1] has as its system partially purified brain opiate receptor sites. The note with it: natural peptide.
The next data set has as its system rat. The note with it: injected directly into the brain of the rat.

As to “H-Tyr-Gly-Gly-Phe-Met-OH [methionine enkephalin]”, the “binding to partially purified brain opiate receptor sites” value in data set [1] is “binds stereo-specifically”. Moreover, in the data set with rat, the analgesic activity entry was “only weak analgesic agent of short duration”.
